Legend:
[1] = Evaluation of intracerebral transitivity in rat; type: in vivo, SD(IGS) rats; conditions: for Kp at 1 h / Kp at 4 h: SD(IGS), brain, po, 3 mg/kg orally, read-out: Kp value (ratio of plasma concentration and intracerebral concentration); for Kp at 1 h: 1 hr after administration; for Kp at 4 h: 4 hr after administration; for intracerebral transitivity (in words): orally, test compound A 30 mg/kg, test compounds B and C 3 mg/kg
Experimental: The test compound A dissolved in 0.5% aqueous HPMC solution was orally administered at 30 mg/kg, and test compound B and test compound C dissolved in 0.5% aqueous HPMC solution were each orally administered at 3 mg/kg to SD(IGS) rats (Charles River Laboratories Japan). At 1 hr and 4 hr after the administration of the test compound, blood samples were collected, and the brain (cerebral•cerebellum) was isolated. The plasma concentration and intracerebral concentration of each test compound were measured, and the ratio (Kp value) thereof was calculated, based on which the intracerebral transitivity was evaluated.

[2] = system: IL-6; assay: IL-6 production in LPS-administered mouse; type: in vivo, male BALB/c mouse; conditions: for IL-6 production in LPS model mouse (in words): 10 mg/kg orally 30 min before LPS; for IL-6 production (%): 10 mg/kg orally 30 min before LPS 500 μg/kg i.p., plasma 90 min after LPS, ratio to group without test compound
Experimental: (§1) LPS (lipopolysaccharide, derived from E. coli 0111:B4, Sigma, 500 μg/kg) was intraperitoneally administered to male BALB/c mouse (Charles River Laboratories Japan). After 90 min after LPS administration, the blood was taken under anesthesia, and centrifuged to collect plasma. TNF-α was measured using an Immunoassay Kit (R&D Systems) and IL-10, MCP-1 and IL-6 were measured using an Immunoassay Kit (BIOSOURCE). Test compound A, the compound synthesized in Example 3 (test compound B) and the compound synthesized in Example 7 (test compound C) were dissolved in saline, and the mixture was orally administered at 10 mg/kg 30 min before LPS administration. As shown in the Tables, the effect of each test compound on respective […] cytokines was calculated as the ratio of each cytokine concentration in the blood of the group administered with each test compound to each cytokine concentration in the blood of the group free of administration of each test compound.

[3] = system: rat middle cerebral artery occlusion-reperfusion model; assay: Cerebral infarction volume in rat middle cerebral artery occlusion-reperfusion model; type: in vivo, male Wistar rats; conditions: 10 mg/kg intravenously 30 min after occlusion, reperfusion 90 min after occlusion, brain isolated 24 hr later, TTC stain; FIG. 7
Experimental: The middle cerebral artery of male Wistar rats (Japan Laboratory Animals Inc.) was obstructed with suture (silicon-coated nylon thread), and saline (Vehicle, n=7), test compound A (10 mg/kg, n=6) dissolved in saline, test compound B ([…], n=7) dissolved in saline, and test compound C (10 mg/kg, n=7) dissolved in saline were each intravenously administered in 30 min after occlusion and the artery was reperfused in 90 min after occlusion. The brain was isolated 24 hr later. A 2 mm brain strip was prepared, and the strip was stained with PBS (pH 7.4, 37° C.) containing 1% 2,3,5-triphenyltetrazolium chloride (TTC, Wako Pure Chemical Industries, Ltd.). The cerebral infarction area was measured by image analysis and the cerebral infarction volume was calculated.

[4] = system: MCP-1; assay: MCP-1 production in LPS-administered mouse; type: in vivo, male BALB/c mouse; conditions: for MCP-1 production in LPS model mouse (in words): 10 mg/kg orally 30 min before LPS; for MCP-1 production (%): 10 mg/kg orally 30 min before LPS 500 μg/kg i.p., plasma 90 min after LPS, ratio to group without test compound
Experimental: as §1

[5] = system: IL-10; assay: IL-10 production in LPS-administered mouse; type: in vivo, male BALB/c mouse; conditions: for IL-10 in LPS model mouse (in words): 10 mg/kg orally 30 min before LPS; for IL-10 production (%): Table 1, 10 mg/kg orally 30 min before LPS 500 μg/kg i.p., plasma 90 min after LPS, ratio to group without test compound
Experimental: as §1

[6] = Evaluation of bioavailability in rat; type: in vivo, male SD(IGS) rats; conditions: plasma; for AUC0-last / AUC0-∞ / Cmax at 5 min / Cmax: Mean + SD; for Cmax at 5 min / bioavailability / Cmax: male, SD(IGS); for Cmax at 5 min: iv, read-out: Cmax (C5 min, plasma concentration at 5 min after administration); for bioavailability: oral, 3 mg/kg p.o. vs 3 mg/kg i.v., F = (AUC0-∞,p.o./AUC0-∞,i.v.,mean) × (Dosei.v./Dosep.o.) × 100; for Cmax: po, read-out: Cmax
Experimental: Test compound A, test compound B and test compound C were each dissolved in 0.5% aqueous HPMC (hydroxypropyl methylcellulose) solution in the case of oral administration, or in saline in the case of intravenous administration, and they were orally or intravenously administered to male SD(IGS) rats (Charles River Laboratories Japan) by 3 mg/kg. The concentration of unchanged drug in the plasma of each rat was measured, and bioavailability (F(%)) was calculated (F (%)=(AUC0-∞,p.o./AUC0-∞,i.v.,mean)×(Dosei.v./Dosep.o.)×100). The test compound was administered by gavage using an oral gavage needle (p.o.), or administered in the tail vein (i.v.). The blood samples were collected at 15 and 30 min, 1, 2, 4, 6, 8 and 24 hr after administration in the case of oral administration, and 5 and 30 min, 1, 2, 4, 6, 8 and 24 hr after administration in the case of intravenous administration.
The results are shown in Tables 4 (test compound A), 5 (test compound B) and 6 (test compound C). The Cmax values for i.v. in Tables 4, 5 and 6 show plasma concentration at 5 min after administration.

[7] = system: TNF-α; assay: TNF-α production in LPS-administered mouse; type: in vivo, male BALB/c mouse; conditions: for TNF-α production in LPS model mouse (in words): 10 mg/kg orally 30 min before LPS; for TNF-α production (%): Table 1, 10 mg/kg orally 30 min before LPS 500 μg/kg i.p., plasma 90 min after LPS, ratio to group without test compound
Experimental: as §1

[8] = system: IL-1β receptor; conditions: non-patent document 6; cited from earlier work
[9] = molecular target: T1, IL-1β receptor (Homo sapiens, UniProt P14778); conditions: clinical trial (Phase II); non-patent document 7; cited from earlier work
T1 sequence (P14778 18-569): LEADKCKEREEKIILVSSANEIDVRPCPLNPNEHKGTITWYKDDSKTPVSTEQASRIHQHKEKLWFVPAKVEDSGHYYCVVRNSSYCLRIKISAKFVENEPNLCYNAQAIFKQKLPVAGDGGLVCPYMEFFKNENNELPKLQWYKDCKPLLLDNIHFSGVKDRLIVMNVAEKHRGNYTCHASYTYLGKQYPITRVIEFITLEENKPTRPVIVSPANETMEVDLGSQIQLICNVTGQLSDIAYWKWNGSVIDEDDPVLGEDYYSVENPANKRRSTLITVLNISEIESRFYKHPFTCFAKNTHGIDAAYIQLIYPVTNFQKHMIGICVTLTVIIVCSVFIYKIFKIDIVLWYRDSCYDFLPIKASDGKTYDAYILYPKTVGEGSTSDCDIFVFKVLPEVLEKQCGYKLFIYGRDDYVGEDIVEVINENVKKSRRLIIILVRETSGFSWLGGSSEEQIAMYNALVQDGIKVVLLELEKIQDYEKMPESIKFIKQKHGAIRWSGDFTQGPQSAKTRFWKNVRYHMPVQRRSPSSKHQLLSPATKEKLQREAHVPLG

Compound	Kp at 1 h [1]	Kp at 4 h [1]	intracerebral transitivity (in words) [1]	IL-6 production in LPS model mouse (in words) [2]	suppression of cerebral infarction volume [3] [%]	MCP-1 production in LPS model mouse (in words) [4]	IL-10 in LPS model mouse (in words) [5]	IL-10 production (%) [5] [%]	AUC0-last ([6]; 3 mg/kg i.v.) [ngh/mL]	AUC0-∞ ([6]; 3 mg/kg i.v.) [ngh/mL]	AUC0-last ([6]; 3 mg/kg p.o.) [ngh/mL]	AUC0-∞ ([6]; 3 mg/kg p.o.) [ngh/mL]	Cmax at 5 min ([6]; 3 mg/kg i.v.) [ng/mL]	bioavailability [6] [%]	Cmax ([6]; 3 mg/kg p.o.) [ng/mL]	TNF-α production in LPS model mouse (in words) [7]	TNF-α production (%) [7] [%]	also measured
CC(=O)NC1(c2ccc(CN3C[C@@H]4C[C@H]3CN4c3ncccn3)cc2)CC1 [test compound B, N-[1-(4-{[(1S,4S)-5-(pyrimidin-2-yl)-2,5-diazabicyclo[2.2.1]hept-2-yl]methyl}phenyl)cyclopropyl]acetamide]	0.8	1.3	intracerebrally transferred	suppressed	17.8	suppressed	increased	350.1	1449.8 ± 123.3	1464.6 ± 122.3	1082.8 ± 171.1	1105.7 ± 170.8	1600 ± 58.3	75.5	471	suppressed	53.9	IL-6 production (%) ([2]; Table 2): 78.7%; MCP-1 production (%) ([4]; Table 2): 63.9%
CC(=O)NC1(c2ccc(CN3CCN(c4ncccn4)CC3)cn2)CC1 [test compound C, N-(1-{5-[{4-(pyrimidin-2-yl)piperazin-1-yl}methyl]pyridin-2-yl}cyclopropyl)acetamide]	0.8	0.9	intracerebrally transferred	suppressed	43.2	suppressed	increased	401.4	10173.6 ± 3012.9	10446.3 ± 2852.3	8192.2 ± 3114.3	8434.3 ± 2981.5	4510 ± 359	80.7	2000	suppressed	50.6	IL-6 production (%) ([2]; Table 3): 81%; MCP-1 production (%) ([4]; Table 3): 72.1%
recombinant IL-1ra: an IL-1β receptor antagonist (recombinant IL-1ra)	–	–	–	–	–	–	–	–	–	–	–	–	–	–	–	–	–	cerebral ischemic disorder [8]: alleviating action; cerebral ischemic disorder [9]: alleviating effect

From patent US8835631B2, “Therapeutic agent for cerebral infarction” (Mitsubishi Tanabe Pharma Corporation, priority 2007, dated 2014)
